This data set deals with T1, ADAM17 (Homo sapiens, UniProt P78536).
T1 construct: endogenous in cells; host or cells: iPSCs engineered with p1514 (ADAM17-cleavable membrane-tethered IL12 transgene at the AAVS1 locus)
The data set can be described thus: Flow cytometry for IL12 on the surface of p1514-engineered iPSCs after incubation with TAPI-1. The class given is cell-based. The following applies: concentrations lower than 50 uM. As for the experimental part: To confirm expression in cells engineered with the ADAM17 cleavable membrane tethered IL12 (p1514; FIG. 1B), the iPSCs were incubated with different concentrations of the ADAM17 inhibitor TAPI-1 and then analyzed by flow cytometry for IL12 detection on the surface of the engineered iPSCs.
Lower concentrations had no effect on cell health or tmIL12 detection)
(In general: A flow cytometer gives signals particle by particle.)

T1 sequence (P78536 215-824): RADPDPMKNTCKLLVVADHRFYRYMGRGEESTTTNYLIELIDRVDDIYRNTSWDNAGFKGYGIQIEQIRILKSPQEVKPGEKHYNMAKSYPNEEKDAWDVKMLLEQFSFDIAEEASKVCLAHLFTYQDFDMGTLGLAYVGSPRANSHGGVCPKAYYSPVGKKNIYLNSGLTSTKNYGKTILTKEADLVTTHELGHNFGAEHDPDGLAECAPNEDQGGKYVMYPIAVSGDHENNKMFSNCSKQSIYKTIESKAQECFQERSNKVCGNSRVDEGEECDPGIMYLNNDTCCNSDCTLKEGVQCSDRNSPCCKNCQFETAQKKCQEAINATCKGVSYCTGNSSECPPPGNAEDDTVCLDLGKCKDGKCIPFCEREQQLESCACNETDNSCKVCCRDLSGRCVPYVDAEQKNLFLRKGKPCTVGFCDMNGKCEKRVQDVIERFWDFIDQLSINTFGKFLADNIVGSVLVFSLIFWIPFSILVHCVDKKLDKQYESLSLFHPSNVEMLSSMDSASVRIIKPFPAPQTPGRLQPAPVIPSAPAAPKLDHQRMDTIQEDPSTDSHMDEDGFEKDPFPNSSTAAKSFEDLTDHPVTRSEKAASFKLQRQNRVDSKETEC

In the case of `CC(C)C[C@H](CC(=O)NO)C(=O)N[C@@H](Cc1ccc2ccccc2c1)C(=O)N[C@@H](C)C(=O)NCCN` [TAPI-1], the “tmIL12 detection on surface of engineered iPSCs” value is listed as “no effect”. Besides, the cell health result (engineered iPSCs) is on record as “no effect”.

For the origin of these results see patent US20250360210A1, “IMMUNOEFFECTOR CELLS DERIVED FROM INDUCED PLURIPOTENT STEM CELLS GENETICALLY ENGINEERED WITH MEMBRANE BOUND IL12 AND USES THEREOF” (Century Therapeutics, Inc., priority 2022, published 2025).
